Data published in patent US20200131495A1, “PROTEINS DERIVED FROM CLPB AND USES THEREOF” (priority 2017, published 2020).

What was measured:
[1] = tested on: intestinal tissues from rats (colons and ileums); test: PYY secretion experiment in rat colons and ileums; format: cell-based; conditions: 10 nM, 20 min, control PBS, FIG. 6
Description: Colons and ileums were removed from male rats (Janvier Labs, Genest-Saint-Isle, France). They were washed with ice-cold PBS, then with ice-cold L-15 (Leibowitz) medium (PAA, Yeovil, UK). Then they were digested with 0.4 mg/mL collagenase XI (Sigma, Poole, UK) in High-Glucose DMEM (+1% L-Glutamine+1% Penicillin+1% Streptomycin+1% and non-essential amino acids) at 37° C. during 10 min. Cells suspensions were centrifuged (10 min at 400 g) and the pellets were resuspended in High-Glucose DMEM (the same that previously but with 10% Fetal Bovine Serum (FBS). Cell suspensions were filtered through a nylon mesh (pore size 100 Jpm) (Merck Millipore, Mass., USA) and plated onto 24 well, 1% Matrigel-coated plates (Corning, N.Y., US). The plates were incubated overnight at 37° C. in an atmosphere of […] and 5% CO2.
After 24 hours of culture, cells were incubated for 20 min in a water bath with secretion buffer (4 mM KCl, 138 mM NaCl, 1.2 mM NaHCO3, 1.2 mM NaH2PO4, 2.6 mM CaCl2), 1.2 mM MgCl2 and 10 mM HEPES) adjusted at pH 7.4) and full-length ClpB or the ˜25 kDa fragment at a concentration of 10 nM. […]
After incubation, the cells were treated with lysis buffer (50 mmol/L Tris-HCl, 150 mmol/L NaCl, 1% IGEPAL CA-630, 0.5% deoxycholic acid+cocktail of protease inhibitor tablets complete without EDTA) to extract intracellular peptides. […] Lysates were stored at −80° C. if not analyzed immediately. […]

[2] = Food intake of mice in BioDAQ cages after i.p. or oral administration; format: in vivo; conditions: for food intake in mice, oral administration: 60 pmol in 200 μL, FIG. 8
Description: Male C57/B16 mice were placed in the BioDAQ mouse cages (Research Diets, Inc., New Brunswick, N.J.) alone to measure the food intake. Each mouse was administered either physiological serum (n=6), full-length ClpB, or fragment of ˜25 kDa.
Two modes of administration were tested: intraperitoneal (i.p.) injection at a concentration of 2 pmol in a volume of 200 μL (n=8), and oral administration at a concentration of 60 pmol in a volume of 200 μL (n=10).

anti-α-MSH antibody = test: Western blot revealed with anti-α-MSH antibody; format: binding, rabbit; conditions: FIG. 3 (trypsinised ClpB); FIG. 4 (colic mucosa, hypothalamus, plasma of mice and rats)
Description: First the fragmentation was performed on different conditions: ClpB diluted at 1/10 (from the stock at 5 mg/mL) and ClpB 1/10 with 0.0025% trypsin. Those different conditions were placed during 20 minutes at 37° C. After incubation, the fragmentation was immediately stopped by placing tubes on ice and western blot was performed.
After fragmentation, Leamli solution without J-mercaptoethanol was added into tubes to perform western on 20% acrylamide SDS gel in Tris-Glycine buffer (BioRad, Hercules, USA) and transferred to a nitrocellulose membrane (GE Healthcare, Orsay, France). Then, the membrane was blocked for at least 1 h at room temperature with 5% (w/v) non-fat dry milk in TBS (10 mmol/L Tris, pH 8; 150 mmol/L NaCl) plus 0.05% (w/v) Tween 20. After blocking, the […] The membrane was incubated overnight at 4° C. with rabbit polyclonal anti-α-MSH antibodies (1:1000, Phoenix Pharmaceuticals). After three washes in a blocking solution of 5% (w/v) non-fat dry milk in TBS/0.05% Tween 20, membranes were incubated for 1 h with peroxidase-conjugated anti rabbit IgG (1:1000, SantaCruz Biotechnology). […]
Tissues were incubated with extracted buffer (PBS+protease inhibitor (1%)). The volume added depends of sample quantity. […] The supernatant was stored at −80° C. if not analysed immediately. […]

MC1R = MC1R (Mus musculus, UniProt Q01727); conditions: Ericson et al., 2015; cited from earlier work
MC1R, sequence (Q01727 whole entry): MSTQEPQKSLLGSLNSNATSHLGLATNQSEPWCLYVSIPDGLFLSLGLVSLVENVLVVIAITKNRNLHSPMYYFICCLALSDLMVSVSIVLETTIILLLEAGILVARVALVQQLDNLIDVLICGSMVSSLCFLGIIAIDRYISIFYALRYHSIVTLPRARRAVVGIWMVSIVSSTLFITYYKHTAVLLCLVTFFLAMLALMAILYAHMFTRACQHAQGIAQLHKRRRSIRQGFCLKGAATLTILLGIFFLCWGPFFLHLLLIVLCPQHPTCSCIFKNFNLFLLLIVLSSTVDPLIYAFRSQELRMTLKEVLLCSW

MC3R = MC3R (Mus musculus, UniProt P33033); conditions: Ericson et al., 2015; cited from earlier work
MC3R, sequence (P33033 whole entry): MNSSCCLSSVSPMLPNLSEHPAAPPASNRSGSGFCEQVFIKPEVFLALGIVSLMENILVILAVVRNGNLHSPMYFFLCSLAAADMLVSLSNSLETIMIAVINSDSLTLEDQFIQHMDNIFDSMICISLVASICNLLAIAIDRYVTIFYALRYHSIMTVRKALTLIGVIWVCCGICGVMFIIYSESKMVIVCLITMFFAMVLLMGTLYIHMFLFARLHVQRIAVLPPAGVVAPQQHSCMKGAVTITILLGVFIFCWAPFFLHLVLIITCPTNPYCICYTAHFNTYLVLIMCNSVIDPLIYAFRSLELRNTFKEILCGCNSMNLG

MCSR = MCSR (Mus musculus, UniProt P41149); conditions: Ericson et al., 2015; cited from earlier work
MCSR, sequence (P41149 whole entry): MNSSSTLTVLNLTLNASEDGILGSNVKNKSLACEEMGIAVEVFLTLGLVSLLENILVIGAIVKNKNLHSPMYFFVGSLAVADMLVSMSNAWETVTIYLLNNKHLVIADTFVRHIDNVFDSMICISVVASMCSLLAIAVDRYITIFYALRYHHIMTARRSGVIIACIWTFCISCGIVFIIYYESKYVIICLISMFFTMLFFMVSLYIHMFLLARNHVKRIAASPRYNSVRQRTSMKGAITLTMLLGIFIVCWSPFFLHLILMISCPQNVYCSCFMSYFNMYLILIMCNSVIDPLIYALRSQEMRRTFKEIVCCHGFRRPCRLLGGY

MC4R = MC4R (Mus musculus, UniProt P56450); conditions: Ericson et al., 2015; cited from earlier work
MC4R, sequence (P56450 whole entry): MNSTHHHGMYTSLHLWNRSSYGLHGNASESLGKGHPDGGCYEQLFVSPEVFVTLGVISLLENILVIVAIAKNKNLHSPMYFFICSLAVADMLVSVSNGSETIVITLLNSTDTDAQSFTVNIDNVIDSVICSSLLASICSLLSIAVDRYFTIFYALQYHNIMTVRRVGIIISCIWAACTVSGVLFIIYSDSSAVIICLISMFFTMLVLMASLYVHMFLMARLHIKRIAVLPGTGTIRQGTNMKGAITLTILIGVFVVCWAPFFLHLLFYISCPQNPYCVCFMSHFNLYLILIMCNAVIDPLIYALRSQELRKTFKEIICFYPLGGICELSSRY

For “fragment of ˜25 kDa: sequence of ClpB from amino acid 537 to amino acid 756 (SEQ ID NO: 22), produced by trypsinisation of ClpB”, the “PYY secretion compared to the control” value [1] was “increase PYY secretion”, the “duration of the decrease of food intake” value ([2]; i.p. 2 pmol and oral 60 pmol in 200 μL, FIGS. 7 and 8) was “at least 90 min” and the “food intake in mice” value ([2]; i.p. 2 pmol and oral 60 pmol in 200 μL, FIGS. 7 and 8, compared with full-length ClpB protein) was “decreases food intake in mice at least as much as the full-length ClpB protein”. For the same substance, the “food intake in mice, oral administration” value [2] was “decreases food intake” and the “recognition by anti-α-MSH antibodies (Western blot)” value (anti-α-MSH antibody) was “revealed with polyclonal anti-α-MSH”.

In the case of “AEIAEVLARWTGIPV (ClpB fragment) [modified short ClpB fragment studied by Ericson et al]”, the MC1R agonist activity (MC1R) is given as “full micromolar MC1R agonist”, the “activity on MC3R” value (MC3R) is given as “partial activities” and the “activity on MCSR” value (MCSR) is given as “partial activities”. The “activity on MC4R” value (MC4R) was “not on MC4R”.

For “full-length ClpB: chaperone protein ClpB (caseinolytic protease B), ˜96 kDa, 857 amino acids, from E. Coli K12”, the “PYY secretion compared to the control” value [1] was “increase PYY secretion” and the “food intake in mice, oral administration” value [2] was “no such effect”.
